Where two headings read alike, the source gives them in different places.
Tests used:
DOHH2 = experiment: cell cytotoxicity EC50, CellTiter Glo, leukemia/lymphoma cell line; format: cell-based, human; details: DOHH-2
Method: (§1) The SCLC and leukemia/lymphoma cell lines listed below were obtained from the American Type Culture Collection (Manassas, Va.), Deutsche Sammlung von Mikroorganismen und Zellkulturen (DSMZ, Braunsweig, Germany), or were the generous gift from Dr. Louis Staudt (National Cancer Institute) and were cultured as described in Tse, C., Shoemaker, A. R., Adickes, J., et al., “ABT-263: a potent and orally bioavailable Bcl-2 family inhibitor,” Cancer Res 2008; 68: 3421-3428; and Tahir, S. K., Yang, X., Anderson, M. G., et al., “Influence of Bcl-2 family members on the cellular response of small-cell lung cancer cell lines to ABT-737,” Cancer Res 2007; 67: 1176-1183.
(§2) Cells were treated at 10,000 or 50,000 cells per well for adherent or suspension cells, respectively, in 96-well microtiter plates in the presence of 10% human serum for 48 hours with or without ABT-263, in a humidified chamber with 5% CO2. ABT-263 was synthesized as previously described in Tse, C., Shoemaker, A. R., Adickes, J., et al., “ABT-263: a potent and orally bioavailable Bcl-2 family inhibitor,” Cancer Res 2008; 68: 3421-3428; and Oltersdorf, T., Elmore, S. W., Shoemaker, A. R., et al., “An inhibitor of Bcl-2 family proteins induces regression of solid tumours,” Nature 2005; 435: 677-681, and cell cytotoxicity EC50 values were assessed using CellTiter Glo (Promega, Madison Wis.).

Raji = experiment: as above; format: cell-based, human
Method: as §1, §2

KG1a = experiment: as above; format: cell-based, human; details: KG-1a
Method: as §1, §2

MV-4-11 = experiment: as above; format: cell-based, human
Method: as §1, §2

MEG-01 = experiment: as above; format: cell-based, human
Method: as §1, §2

Jurkat = experiment: as above; format: cell-based, human
Method: as §1, §2

CCRF-CEM = experiment: as above; format: cell-based, human
Method: as §1, §2

K562 = experiment: as above; format: cell-based, human
Method: as §1, §2

U-937 = experiment: as above; format: cell-based, human
Method: as §1, §2

JVM-2 = experiment: cell cytotoxicity EC50, CellTiter Glo, Mantle Cell Lymphoma cell line; format: cell-based, human
Method: as §1, §2

Mino = experiment: as above; format: cell-based, human
Method: as §1, §2

JVM-13 = experiment: as above; format: cell-based, human
Method: as §1, §2

Granta = experiment: as above; format: cell-based, human
Method: as §1, §2

SP53 = experiment: as above; format: cell-based, human
Method: as §1, §2

HBL-2 = experiment: as above; format: cell-based, human
Method: as §1, §2

JeKo-1 = experiment: as above; format: cell-based, human
Method: as §1, §2

solid tumors = details: in vivo; cited from earlier work
[1] = 10% human serum, 48 hours, read-out: EC50
[2] = Homo sapiens, read-out: Response Designation

## CC1(C)CCC(c2ccc(Cl)cc2)=C(CN2CCN(c3ccc(C(=O)NS(=O)(=O)c4ccc(N[C@H](CCN5CCOCC5)CSc5ccccc5)c(S(=O)(=O)C(F)(F)F)c4)cc3)CC2)C1 [ABT-263, N-(4-(4-((2-(4-chlorophenyl)-5,5-dimethyl-1-cyclohex-1-en-1-yl)methyl)piperazin-1-yl)benzoyl)-4-(((1R)-3-(morpholin-4-yl)-1-((phenylsulfanyl)methyl)propyl)amino)-3-((trifluoromethyl)sulfonyl)benzenesulfonamide]
DOHH2; DoHH2, 10% human serum, 48 hours, read-out: EC50
  EC50: 0.322 µM
DOHH2; Homo sapiens, DOHH2, read-out: Response Designation
  EC50: ≤ 4.8 µM
Raji; [1]
  EC50: 23.7 µM
Raji; [2]
  EC50: > 4.8 µM
KG1a; [2]
  EC50: ≤ 4.8 µM
KG1a; [1]
  EC50: 0.243 µM
MV-4-11; Homo sapiens, MV4-11, read-out: Response Designation
  EC50: ≤ 4.8 µM
MV-4-11; MV4-11, 10% human serum, 48 hours, read-out: EC50
  EC50: 0.028 µM
MEG-01; Homo sapiens, MEG-01, read-out: Response Designation
  EC50: > 4.8 µM
MEG-01; Meg-01, 10% human serum, 48 hours, read-out: EC50
  EC50: 6.04 µM
Jurkat; [1]
  EC50: 3.35 µM
Jurkat; [2]
  EC50: ≤ 4.8 µM
CCRF-CEM; [1]
  EC50: 0.765 µM
CCRF-CEM; [2]
  EC50: ≤ 4.8 µM
K562; [1]
  EC50: 12.8 µM
K562; [2]
  EC50: > 4.8 µM
U-937; [1]
  EC50: 33.9 µM
U-937; [2]
  EC50: > 4.8 µM
JVM-2; [1]
  EC50: 4.11 µM
JVM-2; [2]
  EC50: ≤ 4.8 µM
Mino; Homo sapiens, MINO, read-out: Response Designation
  EC50: ≤ 4.8 µM
Mino; Mino, 10% human serum, 48 hours, read-out: EC50
  EC50: 0.033 µM
JVM-13; Homo sapiens, JVM13, read-out: Response Designation
  EC50: > 4.8 µM
JVM-13; JVM13, 10% human serum, 48 hours, read-out: EC50
  EC50: 13 µM
Granta; [1]
  EC50: 0.041 µM
Granta; [2]
  EC50: ≤ 4.8 µM
SP53; [1]
  EC50: 0.14 µM
SP53; [2]
  EC50: ≤ 4.8 µM
HBL-2; HBL2, 10% human serum, 48 hours, read-out: EC50
  EC50: 0.031 µM
HBL-2; Homo sapiens, HBL2, read-out: Response Designation
  EC50: ≤ 4.8 µM
JeKo-1; [1]
  EC50: 1.74 µM
JeKo-1; [2]
  EC50: ≤ 4.8 µM

## CN(C)CC[C@H](CSc1ccccc1)Nc1ccc(S(=O)(=O)NC(=O)c2ccc(N3CCN(Cc4ccccc4-c4ccc(Cl)cc4)CC3)cc2)cc1[N+](=O)[O-] [ABT-737, N-(4-(4-((4′-chloro(1,1′-biphenyl)-2-yl)methyl)piperazin-1-yl)benzoyl)-4-(((1R)-3-(dimethylamino)-1-((phenylsulfanyl)methyl)propyl)amino)-3-nitrobenzenesulfonamide]
Solid tumors
  effect on solid tumors: induce regression of solid tumors

From US20100028889A1, “COMPANION DIAGNOSTIC ASSAYS FOR CANCER THERAPY” (ABBOTT LABORATORIES, priority 2006, published 2010)
